This experiment addresses T1, human cloned CHRM5 receptor (Homo sapiens, UniProt P08912).
T1 construct: expressed in transfected cells; host or cells: CHO (M5_CHO)
T1 sequence (P08912 1-532): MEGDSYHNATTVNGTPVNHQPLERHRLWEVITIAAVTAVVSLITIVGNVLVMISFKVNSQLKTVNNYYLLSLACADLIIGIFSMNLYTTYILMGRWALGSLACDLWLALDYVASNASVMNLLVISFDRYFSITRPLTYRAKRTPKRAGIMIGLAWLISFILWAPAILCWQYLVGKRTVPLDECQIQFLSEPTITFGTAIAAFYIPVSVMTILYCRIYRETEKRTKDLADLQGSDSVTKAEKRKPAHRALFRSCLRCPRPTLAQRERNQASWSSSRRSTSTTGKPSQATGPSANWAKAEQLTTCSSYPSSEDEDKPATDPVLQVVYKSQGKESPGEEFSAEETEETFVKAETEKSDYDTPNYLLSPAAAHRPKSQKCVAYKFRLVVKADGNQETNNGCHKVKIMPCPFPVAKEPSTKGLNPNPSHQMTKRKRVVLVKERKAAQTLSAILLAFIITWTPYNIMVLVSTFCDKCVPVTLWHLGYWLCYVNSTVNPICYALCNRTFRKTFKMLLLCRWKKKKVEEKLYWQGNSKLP
Description: CHRM5 Ca++ Flux Assay (M5_CHO cells, agonist mode). It is filed as cell-based. As to conditions: for Emax: Percent Activity (PA) measured to EC100 of Carbachol, read-out: M5 FDSS PA %; for EC50: agonist mode, geometric mean if tested more than once, read-out: M5 FDSS EC50. The method, boiled down:
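Agonist-mode calcium mobilisation: compounds, 11 concentrations in triplicate, applied to stable M3_CHO or M5_CHO cells loaded with Ca++ dye, fluorescence followed 3 min. Efficacy expressed against carbachol EC100; EC curves by four-parameter nonlinear regression, geometric mean across independent runs.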

Where only a bound is given, the exact number is not on record here.

As for `Cc1nnc(COc2ccc(F)cc2C2CCN([C@@H]3COC4(C3)CN(c3nnco3)C4)CC2)o1` [Example 2F, (S)-7-(4-(5-fluoro-2-((5-methyl-1,3,4-oxadiazol-2-yl)methoxy)phenyl)piperidin-1-yl)-2-(1,3,4-oxadiazol-2-yl)-5-oxa-2-azaspiro[3.4]octane], the Emax turned out to be 30% and the EC50 came to 3.65 µM.
The corresponding values for `CC1(COc2ccc(F)cc2C2CCN([C@@H]3COC4(C3)CN(c3nncs3)C4)CC2)COC1` [Example 2B, (S)-7-(4-(5-fluoro-2-((3-methyloxetan-3-yl)methoxy)phenyl)piperidin-1-yl)-2-(1,3,4-thiadiazol-2-yl)-5-oxa-2-azaspiro[3.4]octane] are 0% and greater than 25 µM.
The corresponding values for `CC(C)(O)COc1ccc(F)cc1C1CCN([C@@H]2COC3(C2)CN(c2nnco2)C3)CC1` [Example 1U, (S)-1-(2-(1-(2-(1,3,4-oxadiazol-2-yl)-5-oxa-2-azaspiro[3.4]octan-7-yl)piperidin-4-yl)-4-fluorophenoxy)-2-methylpropan-2-ol] are 0% and greater than 25 µM.
On to `c1ccc(C2CCN([C@@H]3COC4(C3)CN(c3nnco3)C4)CC2)c(-c2ncco2)c1` [Example 1X, (S)-2-(1,3,4-oxadiazol-2-yl)-7-(4-(2-(oxazol-2-yl)phenyl)piperidin-1-yl)-5-oxa-2-azaspiro[3.4]octane], for which the Emax was 0% and the EC50 was greater than 25 µM.
For `Fc1ccc(OCC2CC3(COC3)C2)c(C2CCN([C@@H]3COC4(C3)CN(c3nnco3)C4)CC2)c1` [Example 2S, (S)-7-(4-(2-((2-oxaspiro[3.3]heptan-6-yl)methoxy)-5-fluorophenyl)piperidin-1-yl)-2-(1,3,4-oxadiazol-2-yl)-5-oxa-2-azaspiro[3.4]octane], in that order: 0% and greater than 25 µM.
The corresponding values for `Cc1nnc(COc2ccc(F)cc2C2CCN([C@@H]3COC4(C3)CN(c3nnco3)C4)CC2)s1` [Example 2E, (S)-7-(4-(5-fluoro-2-((5-methyl-1,3,4-thiadiazol-2-yl)methoxy)phenyl)piperidin-1-yl)-2-(1,3,4-oxadiazol-2-yl)-5-oxa-2-azaspiro[3.4]octane] are 23% and 1.67 µM.
The corresponding values for `COc1cc(F)ccc1C1CCN([C@@H]2COC3(C2)CN(c2nnco2)C3)CC1` [Example 1S, (S)-7-(4-(4-fluoro-2-methoxyphenyl)piperidin-1-yl)-2-(1,3,4-oxadiazol-2-yl)-5-oxa-2-azaspiro[3.4]octane] are 0% and greater than 25 µM.
